Reference: ChEMBL document CHEMBL1159362, “New cytotoxic indole alkaloids from Tabernaemontana calcarea from the Madagascar rainforest” (J Nat Prod, 2003)
≈ marks a conversion by molar mass, not a printed value.

System: A2780
Test: Cytotoxicity against human A2780 cells
Type: functional, cell-based

SMILES	IC50 [µg/mL]
COC(=O)[C@@]12C[C@@H]3C[C@H]([C@@H](C)O)[C@@H]1N(CC[C@]1(O)C2=Nc2ccc(OC)cc21)C3	10.8 (≈ 27 µM)
CC[C@H]1C[C@H]2CC3c4[nH]c5cc(OC)ccc5c4CCN(C2)[C@H]31	4.9 (≈ 15.8 µM)
COC(=O)[C@@]12C[C@@H]3C[C@H]([C@@H](C)O)[C@@H]1N(CCc1c2[nH]c2ccc(OC)cc12)C3=O	6.8 (≈ 17.1 µM)
C[C@@H](O)[C@@H]1C[C@H]2C[C@H]3c4[nH]c5ccccc5c4CCN(C2)[C@@H]13	8.9 (≈ 30 µM)
CC[C@H]1C[C@@H]2CN3CCc4c([nH]c5cc(O)ccc45)[C@](C(=O)OC)(C2)[C@H]13	4.8 (≈ 13.5 µM)
CC[C@H]1C[C@H]2C[C@H]3c4[nH]c5cc(OC)ccc5c4CCN(C2O)[C@@H]13 (mixture of isomers)	7.9
COC(=O)[C@@]12C[C@@H]3C[C@H]([C@@H](C)O)[C@@H]1N(CCc1c2[nH]c2ccc(OC)cc12)C3 [19(R)-HEYNEANINE]	4 (≈ 10.4 µM)
CC[C@H]1C[C@@H]2CN3CCc4c([nH]c5ccccc45)[C@](C(=O)OC)(C2)[C@H]13 [CORONARIDINE]	9.9 (≈ 29.3 µM)
C[C@H](O)[C@@H]1C[C@H]2C[C@H]3c4[nH]c5ccccc5c4CCN(C2)[C@@H]13 [HEYNEANINE]	10.7 (≈ 36.1 µM)
CC[C@H]1C[C@H]2C[C@H]3c4[nH]c5ccc(OC)cc5c4CCN(C2)[C@@H]13 [IBOGAINE]	10.2 (≈ 32.9 µM)
CC[C@H]1C[C@H]2C[C@H]3c4[nH]c5ccccc5c4CCN(C2)[C@@H]13 [IBOGAMINE]	3.5 (≈ 12.5 µM)
CC[C@H]1C[C@@H]2CN3CCc4c([nH]c5cc(OC)ccc45)[C@](C(=O)OC)(C2)[C@H]13 [ISOVOACANGINE]	9.4 (≈ 25.5 µM)
COC(=O)[C@@]12C[C@@H]3C[C@H]([C@H](C)O)[C@@H]1N(CCc1c2[nH]c2cc(OC)ccc12)C3 [ISOVOACRISTINE]	9.6 (≈ 25 µM)
CC[C@H]1C[C@@H]2CN3CCc4c([nH]c5ccc(OC)cc45)[C@](C(=O)OC)(C2)[C@H]13 [VOACANGINE]	10.4 (≈ 28.2 µM)
COC(=O)[C@@]12C[C@@H]3C[C@H]([C@H](C)O)[C@@H]1N(CCc1c2[nH]c2ccc(OC)cc12)C3 [VOACRISTINE]	11 (≈ 28.6 µM)
